# B1: CER 1183: wildtype human Tim4, SEQ ID NO:20; control molecule lacking intracellular T-cell signaling domains (protein)
# chain: MSKEPLILWLMIEFWWLYLTPVTSETVVTEVLGHRVTLPCLYSSWSHNSNSMCWGKDQCPYSGCKEALIRTDGMRVTSRKSAKYRLQGTIPRGDVSLTILNPSESDSGVYCCRIEVPGWFNDVKINVRLNLQRASTTTHRTATTTTRRTTTTSPTTTRQMTTTPAALPTTVVTTPDLTTGTPLQMTTIAVFTTANTCLSLTPSTLPEEATGLLTPEPSKEGPILTAESETVLPSDSWSSVESTSADTVLLTSKESKVWDLPSTSHVSMWKTSDSVSSPQPGASDTAVPEQNKTTKTGQMDGIPMSMKNEMPISQLLMIIAPSLGFVLFALFVAFLRGKLMETYCSQKHTRLDYIGDSKNVLNDVQHGREDEDGLFTL
# Legend:
# [1] = tested on: A2780 ovarian cancer cells; assay: Viability and phosphatidylserine exposure of A2780 cells treated with PARP inhibitors (annexin V); type: cell-based, human; settings: for effective concentration that killed 25% cells (EC25): A2780 cells; for phosphatidylserine exposure on viable A2780 cells: subtherapeutic doses, 96 hours
# Experimental: Viability (FIG. 31A) and phosphatidylserine (PS) exposure (FIG. 31B) of A2780 cells treated with niraparib or olaparib (both at 0.25 to 6 μM) at 96 hours.
# (§1) At day 0, media was exchanged and donor T cells from three subjects (FIG. 28) transduced with CER-1234, CER-1236, or control CER-1183 (FIG. 27A) were added at various effector:target ratios to A2780 cells treated with PARPi to assess chimeric Tim4 receptor-T cell activation, cytokine production, proliferation, and cytotoxic responses. Chimeric Tim4 receptor-T cells immunophenotyping and bulk supernatant analysis was performed on day 2 and day 5 following initiation of co-culture.
# Phosphatidylserine exposure on A2780 ovarian cancer cells upon treatment with the small molecule PARP inhibitors niraparib or olaparib was evaluated by annexin v staining to determine the appropriate drug dose. Phosphatidylserine targeting Tim-4 CER constructs designed to enhance cytotoxicity and target-dependent tumor cell fragment uptake were engineered. […] CER-1250 has the same intracellular signaling domains as CER1236 but has a mutated IgV domain with AAAA substitution to abrogate phosphatidylserine binding. Niraparib (0.5 μM) and olaparib (1.5 μM) were used to expose phosphatidylserine on the surface of A2780 cells for CER T cell recognition and cytotoxicity, T-cell activation, and cytokine responses were evaluated. Uptake of antigen by CER-1236 T cells was modeled with human papilloma virus E7 antigen-expressing squamous carcinoma (SCC152) TMEM30A phospholipid flippase knockout cells. […] E7 antigen presentation by CER-1236 T cells was assayed by surface expression of HLA-DR, a marker of T cell activation, on autologous HLA-A2-restricted E7 TCR T cells.
# The induction of surface phosphatidylserine expression on A2780 ovarian cells treated with the PARP inhibitors olaparib and niraparib was measured by flow cytometry (FC) using annexin V.
# A2780 cells = settings: compared to untreated
# Experimental: FIG. 34B: At 120 hours, the ratio of cells remaining in treated samples compared to untreated A2780 samples was quantified using the incucyte data from FIG. 34A. FIG. 34C: Proliferation of CER T cells in co-culture assays.
# as §1
# CER T-cell cytotoxic function was evaluated using the Incucyte® live-cell analysis system in co-culture assays with A2780 cells. A2780 cells engineered to constitutively express mCherry were pretreated with 1.5 μM olaparib, 0.5 μM niraparib or no drug for 96 hours. CER T cells (expanded for 6 days after transduction) in T-cell optimizer media containing IL-2, IL-7, and IL-15 were co-cultured with A2780 cells at an effector:target (E:T) ratio of 1:2 in the presence of the same concentrations of olaparib or niraparib.
# REC-1 cells [2] = assay: Phagocytosis of pHrodo-labeled ibrutinib-treated REC-1 cells by CER T cells; type: cell-based; settings: REC-1 pretreated 10 μM ibrutinib, 16 and 40 hours of co-culture
# Excerpt: FIG. 13A: Representative flow cytometry histograms showing engulfment of pHrodo red-labeled REC-1 target cells by CER1234, CER1161, and CER1183 T cells. FIG. 13B: Graphical summary of flow cytometry data showing engulfment of pHrodo red-labeled REC-1 target cells by CER1234, CER1161, and CER1183 T cells. * P<0.01, ** P<0.001, *** P<0.0001; mean+SD, n=4. FIG. 13C: Representative fluorescence microscopy images (at 40×) showing engulfment of pHrodo red-labeled REC-1 target cells by CER1234, CER1161, and CER1183 T cells. FIG. 13D: Engulfed pHrodo-green-labeled REC-1 tumor fragments co-localize into Lyso-tracker red-labeled lysosomes.
# Phagocytosis was assessed in co-culture assays of REC-1 cells with CER T cells. […] The percentage of pHrodo red-positive cells was determined by flow cytometry after 16 or 40 hours of co-culture. The localization of tumor fragments in CER T-cell lysosomal compartments was assessed in a separate experiment with REC-1 cells labeled with pHrodo green; following co-culture, all cells were labeled with Lyso-tracker red. Visualization of engulfment was performed by fluorescence microscopy. 1-way ANOVA with Dunnett's post hoc test was performed compared with untransduced T cells.
# Jeko1 TMEM30A−/− cells = assay: Uptake/engulfment of pHrodo-labeled JeKo-1 PS+ (TMEM30A−/−) cells by CER T cells; type: cell-based; settings: pHrodo label, in vitro co-culture
# Experimental: FIG. 20: FACs and imaging-based detection of pHrodo dye-labeled tumor cell phagocytosis and endocytosis.
# Statistical analysis was performed using 2-way ANOVA.
# Kuramochi cells [3] = settings: 1.56 or 25 μM Niraparib, 48 hours
# Experimental: (§2) FIG. 7A: Flow cytometry measurement of surface PtdSer. Kuramochi cells were treated with 1.56 or 25 μM Niraparib or with equivalent volume of DMSO (control). 48 hours later samples were trypsinized and stained using a Tim4-Fc followed by a fluorescently-labeled secondary antibody to the Tim4-Fc. FIG. 7B: Kuramochi cells pre-treated for ˜20 hours with 1.56 μM Niraparib were co-cultured with pCTX133 and Untransduced CD4 T cells from donor 32 at a 2:1 T cell: Kuramochi ratio and a final Niraparib concentration of 1.56 μM. […] All data were collected via IncuCyte.
# (§3) In ovarian tumors, poly (ADP-ribose) polymerase (PARP) inhibitors, such as Niraparib, are clinically approved drugs which target DNA damage response pathways. Responses are rarely complete, with relapse common after treatment. To induce Ptd-Ser exposure, BRCA-2 mutated Kuramochi cell line was treated with therapeutic doses of the PARP inhibitor Niraparib.
# Kuramochi cells [4] = assay: Kuramochi co-culture with chimeric Tim4 receptor T cells and Niraparib (IncuCyte); type: cell-based; settings: Niraparib alone
# Experimental: as §2, §3
# REC-1 cells [5] = assay: CER T cell cytotoxicity against REC-1 mCherry cells with ibrutinib (Incucyte); type: cell-based; settings: REC-1 cells
# Excerpt: FIG. 38: CER1236 T cells have enhanced and more complete cytotoxic effect against Ibrutinib-treated REC-1 MCL cells but not untreated REC-1 MCL cells.
# Ibrutinib was washed off prior to co-culture with CER T cells. […] Total fluorescence of REC-1 mCherry cells decreased as cytotoxicity occurred.
# REC-1 cells [6] = assay: T-cell activation markers PD-1 and 4-1BB in co-culture with REC-1 cells (flow cytometry); type: cell-based; settings: co-culture with REC-1 cells in the presence of 0.5 μM ibrutinib, 96 hours
# Experimental: FIGS. 15A-15B: Induction of Cell-Surface Markers of T-Cell Activation in Ibrutinib-Treated Co-Cultures of CER1183 and CER1234 T cells and REC-1 Target Cells. Samples depicted in bar graphs from left to right, untransduced, CER-1183, and CER-1234. FIG. 15A: PD-1 expression in co-cultures. FIG. 15B: 4-1BB expression in co-cultures.
# T-cell activation markers programmed death-1 (PD-1) and 4-1BB were evaluated on viable CD3+ T cells by flow cytometry using commercially available fluorochrome-conjugated antibodies. […] Assays were conducted 96 hours after initiation of co-culture of CER T cells with REC-1 cells.
# REC-1 cells [7] = assay: Cytokine induction in CER T / REC-1 co-cultures (multiparametric ELISA); type: cell-based; settings: co-culture with REC-1 cells, 0.5 μM ibrutinib, 96 hours
# Experimental: FIGS. 16A-16H: Induction of Cytokines in Ibrutinib-Treated Co-Cultures of CER1183 and CER1234 T cells and REC-1 Target Cells. Samples depicted in bar graphs from left to right, untransduced, CER-1183, and CER-1234. FIG. 16A: TNFα induction. FIG. 16B: IL-2 induction. FIG. 16C: IFNγ. FIG. 16D: IL-5 induction. FIG. 16E: IL-6 induction. FIG. 16F: IL-10 induction. FIG. 16G: IL-4 induction. FIG. 16H: granzyme B induction.
# Cytokine induction was assessed by multiparametric ELISA using conditioned supernatants harvested after 96 hours in the cytotoxicity assay described above.
# (§4) CER T-cell activation was assessed by measuring induction of IFN-gamma by plate- and cell-based assays. Single induction plate assay: varying concentrations of phosphatidylserine (PS) or phosphatidylethanolamine (PE), a control membrane phospholipid not recognized by wild type TIM-4 (wtTIM-4), were coated onto high-binding tissue culture plates. CER T cells were added and IFN-γ levels were measured 24 hours after ligand exposure by ELISA. EC50 concentrations were determined by nonlinear regression (agonist vs. response-variable slope (4 parameters)). Induction by recursive stimulation plate assay: CER T cells were added to phosphatidylserine coated plates (2.5-20 μg/mL PS coating). Five days later, CER T cells were transferred to uncoated plates with fresh T cell optimizer media for 24 hours. Then, CER T cells were transferred again to a fresh PS coated plate. Supernatant was collected to assess IFN-γ induction by ELISA at various timepoints during re-stimulation (24, 72, and 120 hours). Cell-based assay: cytokine induction was assessed by multiparametric ELISA using conditioned supernatants harvested after 120 hours from the cytotoxicity assay described below.
# phosphatidylserine (PS) = assay: Single induction plate assay: IFN-γ by CER T cells on plate-bound phosphatidylserine (ELISA); type: cell-based; settings: plate-bound PS
# Excerpt: (§5) FIGS. 19A-19C: CER T cells are activated and produce IFN-γ in response to phosphatidylserine engagement in a cell-free in vitro system. FIG. 19A: IFN-γ production in response phosphatidylserine (PS). IFN-γ production was induced in CER-1236 and CER-1234 T cells stimulated with PS (FIG. 19A), but not with phosphatidylethanolamine (PE) (FIG. 19B). […] FIG. 19C: CER1236 T cells are capable of recursive stimulation in vitro. Recursive IFN-γ induction with 3 serial stimulations at the indicated time points following a 24-hour rest after the first stimulation.
# as §5, with “FIG. 33A-33C:” for “FIGS. 19A-19C:”, “33A:” for “19A:”, “33A),” for “19A),”, “33B).” for “19B).”, “33C:” for “19C:”
# FIG. 44 are graphs showing IFNγ production in CER1234 T cells (left) or CER1236 T cells (right) from three donors in response to titrating doses of plate-bound phosphatidylserine.
# FIG. 45 are graphs showing IFNγ production in CER1234 T cells or CER1236 T cells by donor in response to increasing doses of plate-bound phosphatidylserine.
# FIG. 46 are graphs showing IFNγ production in CER1234 T cells or CER1236 T cells by donor in response to increasing doses of plate-bound phosphatidylserine at day 14 post-thaw.
# FIG. 47 are graphs showing T cell expansion (left), IFNγ production (center), and cell viability (right) in CER1236 T cells in response to increasing doses of plate-bound phosphatidylserine.
# FIG. 48 are graphs showing T cell expansion (left), IFNγ production (center), and cell viability (right) in CER1234 T cells in response to increasing doses of plate-bound phosphatidylserine.
# as §4
# T cells obtained from three different donors were transduced with CER1234 or CER1236 and incubated on titrating doses of plate-bound phosphatidylserine.
# 24 hour IFNγ stimulation by plate-bound phosphatidylserine aligns with day 5 post-activation expansion for CER1236 T cells. […] 24 hour IFNγ stimulation by plate-bound phosphatidylserine aligns with day 5 post-activation expansion for CER1234 T cells.
Molecule,effective concentration that killed 25% cells (EC25) [1],phosphatidylserine exposure on viable A2780 cells [1],"A2780 cells eliminated, single agent (A2780 cells)",uptake/engulfment of JeKo-1 PS+ (TMEM30A−/−) tumor cell fragments (Jeko1 TMEM30A−/− cells),other results
O=C(c1cc(Cc2n[nH]c(=O)c3ccccc23)ccc1F)N1CCN(C(=O)C2CC2)CC1 [olaparib],1.5 µM,induce phosphatidylserine exposure on viable A2780 cells,34%,,
"CER1161: Tim4 binding domain-CD28tm-CD28icd-CD3zICD, SEQ ID NO:21",,,,,engulfment of pHrodo red+ target cells (REC-1 cells [2]): increased engulfment of pHrodo red+target cells relative to untransduced T cells
"CO/C1=C\C(C)=C\[C@@H](C)[C@@H](O)[C@@H](C)C/C(C)=C/C=C/[C@H](OC)[C@@H]([C@@H](C)[C@@H](O)[C@H](C)[C@@]2(O)C[C@@H](O)[C@H](C)[C@@H](C(C)C)O2)OC1=O [Bafilomycin A, reference compound]",,,,blocked tumor cell fragment uptake,
NC(=O)c1cccc2cn(-c3ccc([C@@H]4CCCNC4)cc3)nc12 [Niraparib],0.5 µM,induce phosphatidylserine exposure on viable A2780 cells,23%,,"surface PtdSer (membrane phospholipid symmetry) (Kuramochi cells [3]): elicits changes in membrane phospholipid symmetry, in a dose dependent manner; growth of Kuramochi cells (Kuramochi cells [4]): effective in inhibiting growth of Kuramochi cells"
"C=C1[C@@H](C)[C@H]2[C@H](Cc3ccccc3)NC(=O)[C@]23[C@H](OC(C)=O)/C=C/[C@@](C)(O)C(=O)[C@@H](C)C/C=C/[C@H]3[C@@H]1O [Cytochalasin D, reference compound]",,,,blocked tumor cell fragment uptake,
B1,,,,,"tumor cell killing in combination with ibrutinib (REC-1 cells [5]): no additive effect with ibrutinib; PD-1 and 4-1BB expression on the T-cell surface (REC-1 cells [6]): not increased; cytokine induction: TNF-α, IFN-γ, IL-10, IL-5, granzyme B (REC-1 cells [7]): not induced; IFN-γ production in response to phosphatidylserine (phosphatidylserine (PS)): did not induce IFN-γ"

# Source: US20250127896A1, “CHIMERIC TIM4 RECEPTORS AND USES THEREOF” (CERO THERAPEUTICS HOLDINGS, INC., priority 2021, published 2025)
